Numbered stars: 1 amine (or outer) side, 2 acyl side, 3 side chain; on linkers, the order of the positions; unused ones are H or OH. Bridge positions count the residues as written; N and C are the ends. Square brackets hold non-standard residues; d marks the D form. Peptide text beside a SMILES is read from it. * marks the point of attachment. hPhe(3-Cl-4-CF3) = N[C@@H](CCc1ccc(C(F)(F)F)c(Cl)c1)C(=O)O; hPhe(4-CF3) = N[C@@H](CCc1ccc(C(F)(F)F)cc1)C(=O)O; X98 = O=C([C@H](CCOc1ccc(Cl)c(Cl)c1)N[*:1])[*:2]; NMePhe(4-Cl) = CN[C@@H](Cc1ccc(Cl)cc1)C(=O)O; NMePhe(2-Cl) = CN[C@@H](Cc1ccccc1Cl)C(=O)O; X2 = COc1ccc(CC[C@H](N[*:1])C(=O)[*:2])cn1; NMedβ3hAla = C[C@H](CC(=O)[*:2])N(C)[*:1]; NMeAla(cPent) = CN[C@@H](CC1CCCC1)C(=O)O; NMeGly(cPent) = CN[C@H](C(=O)O)C1CCCC1; NMeGly(cBu) = CN[C@H](C(=O)O)C1CCC1; X78 = O=C(CN(CCc1cccnc1)[*:1])[*:2]; NMeCha = CN[C@@H](CC1CCCCC1)C(=O)O; Hyp = O=C(O)[C@@H]1C[C@@H](O)CN1; NMeChg = CN[C@H](C(=O)O)C1CCCCC1; NMeF = CN[C@@H](Cc1ccccc1)C(=O)O; NMeI = CC[C@H](C)[C@H](NC)C(=O)O; NMeD = CN[C@@H](CC(=O)O)C(=O)O; NMeL = CN[C@@H](CC(C)C)C(=O)O; NMeV = CN[C@H](C(=O)O)C(C)C; d(β3hA) = C[C@@H](N)CC(=O)O; NMeA = CN[C@@H](C)C(=O)O; Piperidide = C1CCN(*)CC1; dNMeA = CN[C@H](C)C(=O)O; Ac5c = NC1(C(=O)O)CCCC1; Aze = O=C(O)[C@@H]1CCN1; Aib = CC(C)(N)C(=O)O; Sar = CNCC(=O)O
What follows are compounds tested against protein-protein interaction between Kras and SOS1 (biotin-tagged human Kras loaded with GDP, His-tagged human SOS1) (Homo sapiens (Human), UniProt P01116, G12D) (assay: Protein-protein interaction inhibition between Kras and SOS1 (KrasG12D-SOS PPI) using AlphaScreen). Conditions: AlphaScreen; biotin-tagged human Kras loaded with GDP, His-tagged human SOS1; read-out: KRAS G12D-SOS PPI IC50.
Assay type: biochemical
Compound `CC[C@H](C)[C@@H]1NC(=O)[C@H](CC2CCCC2)N(C)C(=O)C[C@@H](C)NC(=O)[C@H](C(C)C)N(C)C(=O)C2(CCCC2)NC(=O)[C@@H]2CCCN2C(=O)[C@H](CCc2ccc(C(F)(F)F)c(Cl)c2)NC(=O)CN(C)C(=O)[C@H](CC2CCCCC2)N(C)C(=O)[C@@H]2CCN2C(=O)[C@H](C)N(C)C1=O` [Compound 8] (cyclo([Ac5c][NMeV][d(β3hA)][NMeAla(cPent)]I[NMeA][Aze][NMeCha][Sar][hPhe(3-Cl-4-CF3)]P)) has an IC50 of 75 nM. `CC[C@H](C)[C@@H]1NC(=O)[C@H](C(C)C)N(C)C(=O)C[C@@H](C)NC(=O)[C@H](CC(C)C)N(C)C(=O)C(C)(C)NC(=O)[C@H](CC(C)C)N(C)C(=O)[C@H](CCc2ccc(C(F)(F)F)c(Cl)c2)NC(=O)CN(C)C(=O)[C@H](Cc2ccc(Cl)cc2)N(C)C(=O)CN(C)C(=O)CN(C)C1=O` [Compound 740] (cyclo([Aib][NMeL][d(β3hA)][NMeV]I[Sar][Sar][NMePhe(4-Cl)][Sar][hPhe(3-Cl-4-CF3)][NMeL])) showed an IC50 of 11 nM. Work on `CC[C@H](C)[C@@H]1NC(=O)[C@H](C)N(C)C(=O)C[C@@H](C)NC(=O)[C@H](CC(C)C)N(C)C(=O)[C@H](Cc2ccccc2)N(C)C(=O)[C@@H]2C[C@@H](O)CN2C(=O)[C@H](CCc2ccc(C(F)(F)F)cc2)NC(=O)CN(C)C(=O)[C@H](Cc2ccc(Cl)cc2)N(C)C(=O)CN(C)C(=O)CN(C)C1=O` [Compound 1375] (cyclo([Hyp][NMeF][NMeL][d(β3hA)][NMeA]I[Sar][Sar][NMePhe(4-Cl)][Sar][hPhe(4-CF3)])) yielded an IC50 of 9.3 nM. With `CC[C@H](C)[C@@H]1NC(=O)[C@H](CC(C)C)N(C)C(=O)C[C@@H](C(=O)N2CCCCC2)N(C)C(=O)[C@H](C2CCCCC2)N(C)C(=O)C2(CCCC2)NC(=O)[C@H](C)N(C)C(=O)[C@H](CCc2ccc(C(F)(F)F)c(Cl)c2)NC(=O)CN(C)C(=O)[C@H](CC2CCCCC2)N(C)C(=O)CN(C)C(=O)CN(C)C1=O` [Compound 294] ([NMeL]I[Sar][Sar][NMeCha][Sar][hPhe(3-Cl-4-CF3)][NMeA][Ac5c][NMeChg][NMeD]-Piperidide; lactam N-11) the IC50 was 1.4 nM. In the case of `CC[C@H](C)[C@@H]1NC(=O)[C@H](C2CCCCC2)N(C)C(=O)C[C@@H](C)NC(=O)[C@H](C(C)C)N(C)C(=O)C2(CCCC2)NC(=O)[C@@H]2CCCN2C(=O)[C@H](CCc2ccc(C(F)(F)F)c(Cl)c2)NC(=O)CN(C)C(=O)[C@H](CC2CCCCC2)N(C)C(=O)[C@@H]2CCN2C(=O)[C@H](C)N(C)C1=O` [Compound 873] (cyclo([Ac5c][NMeV][d(β3hA)][NMeChg]I[NMeA][Aze][NMeCha][Sar][hPhe(3-Cl-4-CF3)]P)), the IC50 is reported as 51 nM. In the case of `CC[C@H](C)[C@@H]1NC(=O)[C@H](C)N(C)C(=O)C[C@@H](C)NC(=O)[C@H](C2CCCC2)N(C)C(=O)C2(CCCC2)NC(=O)[C@@H]2CCCN2C(=O)[C@H](CCc2ccc(C(F)(F)F)c(Cl)c2)NC(=O)[C@@H](C)N(C)C(=O)[C@H](Cc2ccccc2Cl)N(C)C(=O)[C@@H]2CCN2C(=O)[C@H](C)N(C)C1=O` [Compound 464] (cyclo([Ac5c][NMeGly(cPent)][d(β3hA)][NMeA]I[NMeA][Aze][NMePhe(2-Cl)][dNMeA][hPhe(3-Cl-4-CF3)]P)), the IC50 is reported as 130 nM. For `CC[C@H](C)[C@@H]1NC(=O)[C@H](CC(C)C)N(C)C(=O)C[C@@H](C(=O)N2CCCCC2)N(C)C(=O)[C@H](C2CCCCC2)N(C)C(=O)C2(CCCC2)NC(=O)CN(CCc2cccnc2)C(=O)[C@H](CCc2ccc(C(F)(F)F)c(Cl)c2)NC(=O)CN(C)C(=O)[C@H](CC2CCCCC2)N(C)C(=O)CN(C)C(=O)CN(C)C1=O` [Compound 2032] ([NMeL]I[Sar][Sar][NMeCha][Sar][hPhe(3-Cl-4-CF3)][X78][Ac5c][NMeChg][NMeD]-Piperidide; lactam N-11 (inferred); C-terminus assumed), the IC50 was 1.2 nM. Work on `CC[C@H](C)[C@@H]1NC(=O)[C@H](CC(C)C)N(C)C(=O)C[C@@H](C)N(C)C(=O)[C@H](C2CCCC2)N(C)C(=O)C2(CCCC2)NC(=O)[C@@H]2CCCN2C(=O)[C@H](CCc2ccc(C(F)(F)F)c(Cl)c2)NC(=O)CN(C)C(=O)[C@H](C2CCCC2)N(C)C(=O)[C@@H]2CCN2C(=O)[C@H](C)N(C)C1=O` [Compound 1046] (cyclo([Ac5c][NMeGly(cPent)][NMedβ3hAla][NMeL]I[NMeA][Aze][NMeGly(cPent)][Sar][hPhe(3-Cl-4-CF3)]P)) yielded an IC50 of 4.6 nM. Work on `CC[C@H](C)[C@@H]1NC(=O)[C@H](C)N(C)C(=O)C[C@@H](C(=O)N2CCCCC2)N(C)C(=O)[C@H](C2CCCCC2)N(C)C(=O)C2(CCCC2)NC(=O)[C@@H]2CCCN2C(=O)[C@H](CCOc2ccc(Cl)c(Cl)c2)NC(=O)CN(C)C(=O)[C@H](CC2CCCCC2)N(C)C(=O)CN(C)C(=O)CN(C)C1=O` [Compound 2039, (3S,9S,18S,21S,25S,28S,34S)-28-cyclohexyl-9-(cyclohexylmethyl)-3-[2-(3,4-dichlorophenoxy)ethyl]-7,10,13,16,21,22,26,29-octamethyl-18-[(1S)-1-methylpropyl]-25-(piperidine-1-carbonyl)spiro[1,4,7,10,13,16,19,22,26,29,32-undecazabicyclo[32.3.0]heptatriacontane-31,1′-cyclopentane]-2,5,8,11,14,17,20,23,27,30,33-undecone] ([NMeA]I[Sar][Sar][NMeCha][Sar][X98]P[Ac5c][NMeChg][NMeD]-Piperidide; lactam N-11) yielded an IC50 of 18 nM. `CC[C@H](C)[C@@H]1NC(=O)[C@H](C2CCC2)N(C)C(=O)C[C@@H](C(=O)N2CCCCC2)N(C)C(=O)[C@H]([C@@H](C)CC)N(C)C(=O)C2(CCCC2)NC(=O)[C@@H]2CCCN2C(=O)[C@H](CCc2ccc(C(F)(F)F)c(Cl)c2)NC(=O)CN(C)C(=O)[C@H](CC2CCCCC2)N(C)C(=O)[C@@H]2CCN2C(=O)[C@H](C)N(C)C1=O` [Compound 959] ([NMeGly(cBu)]I[NMeA][Aze][NMeCha][Sar][hPhe(3-Cl-4-CF3)]P[Ac5c][NMeI][NMeD]-Piperidide; lactam N-11) gave an IC50 of 1.4 nM. `CC[C@H](C)[C@@H]1NC(=O)[C@H](CC(C)C)N(C)C(=O)C[C@@H](C(=O)N2CCCCC2)N(C)C(=O)[C@H](C2CCCC2)N(C)C(=O)C2(CCCC2)NC(=O)[C@@H]2CCCN2C(=O)[C@H](CCc2ccc(OC)nc2)NC(=O)CN(C)C(=O)[C@H](CC2CCCCC2)N(C)C(=O)[C@@H]2CCN2C(=O)[C@H](C)N(C)C1=O` [Compound 2084] ([NMeL]I[NMeA][Aze][NMeCha][Sar][X2]P[Ac5c][NMeGly(cPent)][NMeD]-Piperidide; lactam N-11 (inferred); C-terminus assumed) gave an IC50 of 130 nM. Compound `CC[C@H](C)[C@@H]1NC(=O)[C@H](CC(C)C)N(C)C(=O)C[C@@H](C(=O)N2CCCCC2)N(C)C(=O)[C@H](C(C)C)N(C)C(=O)C2(CCCC2)NC(=O)[C@@H]2CCCN2C(=O)[C@H](CCc2ccc(C(F)(F)F)c(Cl)c2)NC(=O)CN(C)C(=O)[C@H](CC2CCCCC2)N(C)C(=O)[C@@H]2CCN2C(=O)[C@H](CC(C)C)N(C)C1=O` [Compound 1558] ([NMeL]I[NMeL][Aze][NMeCha][Sar][hPhe(3-Cl-4-CF3)]P[Ac5c][NMeV][NMeD]-Piperidide; lactam N-11) has an IC50 of 71 nM. Work on `CC[C@H](C)[C@@H]1NC(=O)[C@H](C)N(C)C(=O)C[C@@H](C)NC(=O)[C@H](CC(C)C)N(C)C(=O)[C@H](Cc2ccccc2)N(C)C(=O)[C@H](CC(C)C)NC(=O)[C@H](CCc2ccc(C(F)(F)F)c(Cl)c2)NC(=O)CN(C)C(=O)[C@H](Cc2ccc(Cl)cc2)N(C)C(=O)CN(C)C(=O)CN(C)C1=O` [Compound 2088] (cyclo(I[Sar][Sar][NMePhe(4-Cl)][Sar][hPhe(3-Cl-4-CF3)]L[NMeF][NMeL][d(β3hA)][NMeA])) yielded an IC50 of 30 nM.

— patent US20240148821A1, “PHARMACEUTICAL USE OF CYCLIC PEPTIDE COMPOUND” (CHUGAI SEIYAKU KABUSHIKI KAISHA, priority 2021, published 2024)
